Earlier results on one molecule are cited in US20080319015A1, “Insect Repellent Mixture” (priority 2005, published 2008).

For the data set, the system named is biting mosquitoes. Conditions: proportion of about 10% by weight in a formulation.

As to `CCCCN(CCC(=O)OCC)C(C)=O` [ethyl butylacetylaminopropionate, ethyl 3-(N-n-butyl-N-acetylamino)propionate], the protection times entry was “up to 4 hours”.
